# Results published in ChEMBL document CHEMBL3045684, “Compatibility of traditional and novel acaricides with bumblebees (Bombus terrestris): a first laboratory assessment of toxicity and sublethal effects” (Pest Manag Sci, 2010).
# Calls of active or inactive are those of the source. The rule behind the calls is not given here.
# Legend:
# [1] = system: Bombus terrestris; assay: Toxicity against worker Bombus terrestris (bumblebee) assessed as mortality at 3 mg a.i./l, po administered through sugar water for 11 weeks measured everyday for 3 days followed by once a week for 11 weeks; assay type: functional
# [2] = system: Bombus terrestris; assay: Toxicity against worker Bombus terrestris (bumblebee) assessed as mortality at 3 mg a.i./l, po administered through pollen for 11 weeks measured everyday for 3 days followed by once a week for 11 weeks; assay type: functional
# [3] = system: Bombus terrestris; assay: Contact toxicity against worker Bombus terrestris (bumblebee) assessed as mortality at 3 mg a.i./l applied on the dorsal thorax for 11 weeks measured everyday for 3 days followed by once a week for 11 weeks; assay type: functional
# [4] = system: Bombus terrestris; assay: Toxicity against worker Bombus terrestris (bumblebee) assessed as reduction in reproduction at 3 mg a.i./l, po administered through pollen for 11 weeks measured once a week for 11 weeks; assay type: functional; parameters: scale not given: the % may be the effect or the level left
# [5] = system: Bombus terrestris; assay: Toxicity against worker Bombus terrestris (bumblebee) assessed as reduction in reproduction at 3 mg a.i./l, po administered through sugar water for 11 weeks measured once a week for 11 weeks relative to control; assay type: functional, organism-based
# [6] = system: Bombus terrestris; assay: Contact toxicity against worker Bombus terrestris (bumblebee) assessed as reduction in reproduction at 3 mg a.i./l applied on the dorsal thorax for 11 weeks measured once a week for 11 weeks relative to control; assay type: functional, organism-based
# [7] = system: Bombus terrestris; assay: Toxicity against worker Bombus terrestris (bumblebee) assessed as mortality at 18 mg a.i./l, po administered through sugar water measured after 11 weeks; assay type: functional; details: 1848 h
# [8] = system: Bombus terrestris; assay: Toxicity against worker Bombus terrestris (bumblebee) assessed as mortality at 18 mg a.i./l, po administered through sugar water measured after 7 weeks; assay type: functional; details: 1176 h
# [9] = system: Bombus terrestris; assay: Toxicity against worker Bombus terrestris (bumblebee) assessed as mortality at 18 mg a.i./l, po administered through sugar water measured after 1 week; assay type: functional; details: 168 h
# [10] = system: Bombus terrestris; assay: Contact toxicity against worker Bombus terrestris (bumblebee) assessed as mortality at 18 mg a.i./l applied on the dorsal thorax measured after 3 to 4 weeks; assay type: functional, organism-based
# [11] = system: Bombus terrestris; assay: Toxicity against worker Bombus terrestris (bumblebee) assessed as mortality at 18 mg a.i./l, po administered through pollen for 11 weeks measured everyday for 3 days followed by once a week for 11 weeks; assay type: functional
# [12] = system: Bombus terrestris; assay: Toxicity against worker Bombus terrestris (bumblebee) assessed as mortality at 18 mg a.i./l, po administered through sugar water measured after 9 weeks; assay type: functional; details: 1512 h
# [13] = system: Bombus terrestris; assay: Toxicity against worker Bombus terrestris (bumblebee) assessed as mortality at 18 mg a.i./l, po administered through sugar water for 11 weeks measured everyday for 3 days followed by once a week for 11 weeks; assay type: functional
# [14] = system: Bombus terrestris; assay: Contact toxicity against worker Bombus terrestris (bumblebee) assessed as mortality at 18 mg a.i./l applied on the dorsal thorax for 11 weeks measured everyday for 3 days followed by once a week for 11 weeks; assay type: functional
# [15] = system: Bombus terrestris; assay: Toxicity against po dosed worker Bombus terrestris (bumblebee) administered through sugar water for 11 weeks measured everyday for 3 days followed by once a week for 11 weeks; assay type: functional
# [16] = system: Aphidius colemani; assay: Contact toxicity against Aphidius colemani assessed as mortality at 8.5 mg a.i./l; assay type: functional
# [17] = system: Apis mellifera; assay: Toxicity against po dosed Apis mellifera (honey bee) assessed per bee after 24 hr; assay type: functional
# [18] = system: Apis mellifera; assay: Contact toxicity against Apis mellifera (honey bee) assessed per bee after 24 hr; assay type: functional
# [19] = system: Bombus terrestris; assay: Toxicity against worker Bombus terrestris (bumblebee) assessed as mortality at 18 mg a.i./l, po administered through pollen measured after 7 weeks; assay type: functional; details: 1176 h
# [20] = system: Bombus terrestris; assay: Toxicity against worker Bombus terrestris (bumblebee) assessed as mortality at 18 mg a.i./l, po administered through pollen measured after 3 weeks; assay type: functional; details: 504 h
# [21] = system: Bombus terrestris; assay: Toxicity against worker Bombus terrestris (bumblebee) assessed as reduction in reproduction at 18 mg a.i./l, po administered through pollen for 11 weeks measured once a week for 11 weeks; assay type: functional, organism-based
# [22] = system: Bombus terrestris; assay: Contact toxicity against worker Bombus terrestris (bumblebee) assessed as reduction in reproduction at 18 mg a.i./l applied on the dorsal thorax for 11 weeks measured once a week for 11 weeks relative to control; assay type: functional, organism-based
# [23] = system: Bombus terrestris; assay: Toxicity against worker Bombus terrestris (bumblebee) assessed as mortality at 400 mg a.i./l, po administered through sugar water measured up to 1 week; assay type: functional, organism-based
# [24] = system: Bombus terrestris; assay: Toxicity against worker Bombus terrestris (bumblebee) assessed as mortality at 400 mg a.i./l, po administered through sugar water for 11 weeks measured everyday for 3 days followed by once a week for 11 weeks; assay type: functional
# [25] = system: Bombus terrestris; assay: Toxicity against worker Bombus terrestris (bumblebee) assessed as mortality at 400 mg a.i./l, po administered through pollen for 11 weeks measured everyday for 3 days followed by once a week for 11 weeks; assay type: functional
# [26] = system: Bombus terrestris; assay: Contact toxicity against worker Bombus terrestris (bumblebee) assessed as mortality at 400 mg a.i./l applied on the dorsal thorax for 11 weeks measured everyday for 3 days followed by once a week for 11 weeks; assay type: functional
# [27] = system: Bombus terrestris; assay: Toxicity against worker Bombus terrestris (bumblebee) assessed as reduction in reproduction at 400 mg a.i./l, po administered through pollen for 11 weeks measured once a week for 11 weeks; assay type: functional; parameters: scale not given: the % may be the effect or the level left
# [28] = system: Bombus terrestris; assay: Toxicity against worker Bombus terrestris (bumblebee) assessed as reduction in reproduction at 400 mg a.i./l, po administered through sugar water for 11 weeks measured once a week for 11 weeks relative to control; assay type: functional, organism-based
# [29] = system: Bombus terrestris; assay: Contact toxicity against worker Bombus terrestris (bumblebee) assessed as reduction in reproduction at 400 mg a.i./l applied on the dorsal thorax for 11 weeks measured once a week for 11 weeks relative to control; assay type: functional, organism-based
compound,measurement,setting,value
C[C@@H]1[C@@H](c2ccc(Cl)cc2)SC(=O)N1C(=O)NC1CCCCC1 (relative stereo) [HEXYTHIAZOX],mortality at 3 µg/mL,[1],< 25%
same,mortality at 3 µg/mL,[2],90%
same,mortality at 3 µg/mL,[3],< 25%
same,Activity,[4],50%
same,Activity,[5],Active
same,Activity,[6],inactive
CC[C@H](C)[C@H]1O[C@]2(C=C[C@@H]1C)C[C@@H]1C[C@@H](C/C=C(\C)[C@@H](O[C@H]3C[C@H](OC)[C@@H](O[C@H]4C[C@H](OC)[C@@H](O)[C@H](C)O4)[C@H](C)O3)[C@@H](C)/C=C/C=C3\CO[C@@H]4[C@H](O)C(C)=C[C@@H](C(=O)O1)[C@]34O)O2.CO[C@H]1C[C@H](O[C@H]2[C@H](C)O[C@@H](O[C@@H]3/C(C)=C/C[C@@H]4C[C@@H](C[C@]5(C=C[C@H](C)[C@@H](C(C)C)O5)O4)OC(=O)[C@@H]4C=C(C)[C@@H](O)[C@H]5OC/C(=C\C=C\[C@@H]3C)[C@]54O)C[C@@H]2OC)O[C@@H](C)[C@@H]1O [ABAMECTIN],mortality at 18 µg/mL,[7],100%
same,mortality at 18 µg/mL,[8],40%
same,mortality at 18 µg/mL,[9],20%
same,Activity,[10],Active
same,mortality at 18 µg/mL,[11],90%
same,mortality at 18 µg/mL,[12],80%
same,mortality at 18 µg/mL,[13],95%
same,mortality at 18 µg/mL,[14],100%
same,LC50,[15],1.17 mgAi/L
same,NOAEL,[15],0.18 mgAi/L
same,mortality at 8.5 µg/mL,[16],100%
same,LD50,[17],0.009 µg
same,LD50,[18],0.002 µg
same,mortality at 18 µg/mL,[19],60%
same,mortality at 18 µg/mL,[20],40%
same,Activity,[21],Active
same,Activity,[22],Active
Cc1ccc(/N=C/N(C)/C=N/c2ccc(C)cc2C)c(C)c1 [AMITRAZ],Activity,[23],Active
same,mortality at 400 µg/mL,[24],95%
same,mortality at 400 µg/mL,[25],90%
same,mortality at 400 µg/mL,[26],< 25%
same,Activity,[27],50%
same,Activity,[28],Active
same,Activity,[29],inactive
